By Ki is commonly meant the equilibrium dissociation constant of an inhibitor or competing ligand from its target. A low value points to a stronger hold on the target.

Experimental findings from ChEMBL document CHEMBL1139581, “BCUT descriptors to predicting affinity toward A3 adenosine receptors” (Bioorg Med Chem Lett, 2005) are described below.

This assay deals with T1, Adenosine receptor A3 (Rattus norvegicus, UniProt P28647).
T1 sequence (P28647 whole entry): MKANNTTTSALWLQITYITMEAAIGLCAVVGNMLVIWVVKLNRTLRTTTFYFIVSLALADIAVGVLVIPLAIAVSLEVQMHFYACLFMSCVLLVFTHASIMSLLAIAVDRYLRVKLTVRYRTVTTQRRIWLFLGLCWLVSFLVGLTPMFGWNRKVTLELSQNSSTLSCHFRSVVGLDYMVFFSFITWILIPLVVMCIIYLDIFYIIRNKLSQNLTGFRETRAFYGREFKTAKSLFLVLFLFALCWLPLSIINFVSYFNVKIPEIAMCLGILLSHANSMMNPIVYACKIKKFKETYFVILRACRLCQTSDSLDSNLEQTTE
As to the kind of experiment: Displacement of radioligand [125I]AB-MECA binding at rat A3 receptor expressed in CHO cells. Format: cell-based.

In turn, `CCNC(=O)[C@@H]1OC(n2cnc3c(NC(=O)Nc4ccc(S(=O)(=O)Nc5ncccn5)cc4)ncnc32)[C@@H](O)[C@H]1O` (some centres not stated) yielded an inhibition constant Ki of 405 nM. `CCNC(=O)[C@H]1OC(n2cnc3c(NC(=O)Nc4ccc(S(=O)(=O)Nc5ccccn5)cc4)ncnc32)[C@H](O)[C@@H]1O` (some centres not stated) had a Ki of 54.1 nM.
